Measurements as given in patent publication US20080182859A1 (Curis, Inc., priority 2006, published 2008).
Counter-ions that a name gives are not always drawn. One block for each molecule: values may come before it.

Assays:
Type in all cases: cell-based
sonic hedgehog pathway [1] = test: Human hedgehog reporter assay HEPM-GliLuc (HGL); details: HepM human embryonic palatal mesenchymal cells, Gli-luciferase reporter
Description: (§1) Mouse (TM3: mouse Leydig cells; S12: mouse embryonic mesenchymal cells) and human (Daoy: human medulloblastoma cell; HepM: human embryonic palatal mesenchymal cell) cell lines are used to screen small molecules for their ability to modulate the activity of the sonic hedgehog pathway (Table 1, Table 2, and Table 3). Stable hedgehog pathway reporter cell lines are established by specific antibiotic selection following transfection of a reporter plasmid containing a luciferase gene located directly downstream from the gli promoter. Consequently, any observable changes in cellular luciferase activity may be attributed to changes in sonic hedgehog pathway activity in mouse and human cells, respectively, since gli is the major by-product of this pathway. To calculate activity, we generate an eleven point dose curve for each compound using 1:3 dilutions in 96 well assay plates. Each plate tested also contains low and high control to establish maximal pathway activation so to establish/compare a percentage activation of each tested compound (AMAX) on respective plates. Also we calculate EC50 values, or a concentration where the pathway will be exactly 50% activated, for each tested compound to determine potency. In these cell lines, compounds that register >20% AMAX values are considered active.
(§2) Stable hedgehog pathway reporter cell lines are established following specific antibiotic selection following transfection of a reporter plasmid In short, typically cells are plated in MicroTiter-plates at 10,000-20,000 cells per well, in growth media (containing 10%-20% FBS). After 48-72 hrs (HGL and DGL respectively) the media in the assay plates is switched to low-serum containing media (0.5% FBS). At that time compounds are added (at 1-5 μM) to the assay plates, in the presence or absence of hedgehog protein (octyl-modified version; 1-5 ng/ml). After another 24 hrs of incubation, the media from the assay plates is discarded and replaced with luciferase assay-mix. Subsequently, plates are incubated at RT for ˜15-30 mins and then read in a luminometer. [note: addition of the Hedgehog protein, although not critical, will sensitize the assay allowing the identification of weak actives].

sonic hedgehog pathway [2] = test: Hedgehog pathway Gli-luciferase reporter assay, TM3 cells; details: TM3 mouse Leydig cells
Description: as §1, §2

sonic hedgehog pathway [3] = test: Human hedgehog reporter assay Daoy-GliLuc (DGL); details: Daoy human medulloblastoma cells, Gli-luciferase reporter; read-out: Daoy Avg. EC50
Description: as §1, §2

Compound: CN[C@H]1CC[C@@H](N(Cc2cc(-c3ccc(C#N)cc3)ccc2OC)C(=O)c2sc3c(F)ccc(F)c3c2Cl)CC1 [Compound 351, 3-Chloro-4,7-difluoro-benzo[b]thiophene-2-carboxylic acid (4′-cyano-4-methoxy-biphenyl-3-ylmethyl)-(4-methylamino-cyclohexyl)-amide hydrochloride]
EC50 (sonic hedgehog pathway [1]): < 50 nM
EC50 (sonic hedgehog pathway [2]): < 50 nM

Compound: CN[C@H]1CC[C@@H](N(Cc2cc(-c3ccc(S(C)(=O)=O)cc3)ccc2OC)C(=O)c2sc3ccccc3c2Cl)CC1 [Compound R7, 3-Chloro-benzo[b]thiophene-2-carboxylic acid (4′-methanesulfonyl-4-methoxy-biphenyl-3-ylmethyl)-(4-methylamino-cyclohexyl)-amide hydrochloride]
EC50 (sonic hedgehog pathway [1]): < 50 nM
EC50 (sonic hedgehog pathway [2]): < 50 nM

Compound: CN[C@H]1CC[C@@H](N(Cc2cc(-c3cccc(C#N)c3)ccc2OC)C(=O)c2sc3c(F)ccc(F)c3c2Cl)CC1 [Compound 337, 3-Chloro-4,7-difluoro-benzo[b]thiophene-2-carboxylic acid (3′-cyano-4-methoxy-biphenyl-3-ylmethyl)-(4-methylamino-cyclohexyl)-amide hydrochloride]
EC50 (sonic hedgehog pathway [1]): < 50 nM
EC50 (sonic hedgehog pathway [2]): < 50 nM

Compound: CN[C@H]1CC[C@H](N(Cc2cc(-c3ccc(C)nc3)ccc2OC)C(=O)c2sc3cccc(F)c3c2Cl)CC1 [Compound 406, 3-Chloro-4-fluoro-benzo[b]thiophene-2-carboxylic acid [2-methoxy-5-(6-methyl-pyridin-3-yl)-benzyl]-(4-methylamino-cyclohexyl)-amide dihydrochloride]
EC50 (sonic hedgehog pathway [1]): 50 to 250 nM
EC50 (sonic hedgehog pathway [2]): < 50 nM

Compound: CNc1ccc(-c2ccc(OC)c(CN(C(=O)c3sc4ccccc4c3Cl)[C@H]3CC[C@H](NC)CC3)c2)cn1 [Compound 397, 3-Chloro-benzo[b]thiophene-2-carboxylic acid [2-methoxy-5-(6-methylamino-pyridin-3-yl)-benzyl]-(4-methylamino-cyclohexyl)-amide dihydrochloride]
EC50 (sonic hedgehog pathway [1]): 250 to 1000 nM
EC50 (sonic hedgehog pathway [2]): 250 to 1000 nM

Compound: CN[C@H]1CC[C@@H](N(Cc2cc(-c3ccnc(C(=O)O)c3)ccc2OC)C(=O)c2sc3c(F)ccc(F)c3c2Cl)CC1 [Compound R6, 4-(3-{[(3-Chloro-4,7-difluoro-benzo[b]thiophene-2-carbonyl)-(4-methylamino-cyclohexyl)-amino]-methyl}-4-methoxy-phenyl)-pyridine-2-carboxylic acid bis(trifluoroacetate)]
EC50 (sonic hedgehog pathway [1]): 50 to 250 nM
EC50 (sonic hedgehog pathway [2]): 50 to 250 nM

Compound: CN[C@H]1CC[C@@H](N(Cc2cc(-c3ccc(C(N)=O)cc3)ccc2OC)C(=O)c2sc3c(F)ccc(F)c3c2Cl)CC1 [Compound R8, 3-Chloro-4,7-difluoro-benzo[b]thiophene-2-carboxylic acid (4′-carbamoyl-4-methoxy-biphenyl-3-ylmethyl)-(4-methylamino-cyclohexyl)-amide hydrochloride]
EC50 (sonic hedgehog pathway [1]): < 50 nM
EC50 (sonic hedgehog pathway [2]): < 50 nM

Compound: CCOc1ccc(-c2ccc(N)nc2C)cc1CN(C(=O)c1sc2ccccc2c1Cl)[C@H]1CC[C@H](NC)CC1 [Compound 403, 3-Chloro-benzo[b]thiophene-2-carboxylic acid [5-(6-amino-2-methyl-pyridin-3-yl)-2-ethoxy-benzyl]-(4-methylamino-cyclohexyl)-amide dihydrochloride]
EC50 (sonic hedgehog pathway [1]): 250 to 1000 nM
EC50 (sonic hedgehog pathway [2]): 1000 to 2500 nM

Compound: CCOc1ccc(-c2ccc(N(C)C)nc2)cc1CN(C(=O)c1sc2ccccc2c1Cl)[C@H]1CC[C@H](NC)CC1 [Compound 404, 3-Chloro-benzo[b]thiophene-2-carboxylic acid [5-(6-dimethylamino-pyridin-3-yl)-2-ethoxy-benzyl]-(4-methylamino-cyclohexyl)-amide bis(trifluoroacetate)]
EC50 (sonic hedgehog pathway [1]): 250 to 1000 nM
EC50 (sonic hedgehog pathway [2]): 1000 to 2500 nM

Compound: CN[C@H]1CC[C@@H](N(Cc2cc(-c3cc(C)nc(C)c3)ccc2OC)C(=O)c2sc3ccccc3c2Cl)CC1 [Compound R1, 3-Chloro-benzo[b]thiophene-2-carboxylic acid [5-(2,6-dimethyl-pyridin-4-yl)-2-methoxy-benzyl]-(4-methylamino-cyclohexyl)-amide dihydrochloride]
EC50 (sonic hedgehog pathway [1]): 50 to 250 nM
EC50 (sonic hedgehog pathway [2]): < 50 nM

Compound: CN[C@H]1CC[C@@H](N(Cc2cc(-c3cnc(N)nc3)ccc2OC)C(=O)c2sc3ccccc3c2Cl)CC1 [Compound 323, 3-Chloro-benzo[b]thiophene-2-carboxylic acid [5-(2-amino-pyrimidin-5-yl)-2-methoxy-benzyl]-(4-methylamino-cyclohexyl)-amide dihydrochloride]
EC50 (sonic hedgehog pathway [3]): < 50 nM
EC50 (sonic hedgehog pathway [2]): 50 to 250 nM

Compound: CCOc1ccc(-c2cc(C)nc(C)c2)cc1CN(C(=O)c1sc2ccccc2c1Cl)[C@H]1CC[C@H](NC)CC1 [Compound 400, 3-Chloro-benzo[b]thiophene-2-carboxylic acid [5-(2,6-dimethyl-pyridin-4-yl)-2-ethoxy-benzyl]-(4-methylamino-cyclohexyl)-amide dihydrochloride]
EC50 (sonic hedgehog pathway [1]): 250 to 1000 nM
EC50 (sonic hedgehog pathway [2]): 250 to 1000 nM

Compound: CN[C@H]1CC[C@@H](N(Cc2cc(-c3ccc(OC(F)(F)F)cc3)ccc2OC)C(=O)c2sc3ccccc3c2Cl)CC1 [Compound 307, 3-Chloro-benzo[b]thiophene-2-carboxylic acid (4-methoxy-4′-trifluoromethoxy-biphenyl-3-ylmethyl)-(4-methylamino-cyclohexyl)-amide hydrochloride]
EC50 (sonic hedgehog pathway [3]): < 50 nM
EC50 (sonic hedgehog pathway [2]): < 50 nM

Second part, led by results:

EC50 (sonic hedgehog pathway [2]): < 50 nM
Compound: CN[C@H]1CC[C@@H](N(Cc2cc(-c3ccc(C)nc3)ccc2OC)C(=O)c2sc3ccccc3c2Cl)CC1 [Compound 320, 3-Chloro-benzo[b]thiophene-2-carboxylic acid [2-methoxy-5-(6-methyl-pyridin-3-yl)-benzyl]-(4-methylamino-cyclohexyl)-amide dihydrochloride]
EC50 (sonic hedgehog pathway [1]): < 50 nM

EC50 (sonic hedgehog pathway [2]): 50 to 250 nM
Compound: CCOc1ccc(-c2ccc(C)nc2)cc1CN(C(=O)c1sc2ccccc2c1Cl)[C@H]1CC[C@@H](NC)CC1 [Compound R4, 3-Chloro-benzo[b]thiophene-2-carboxylic acid [2-ethoxy-5-(6-methyl-pyridin-3-yl)-benzyl]-(4-methylamino-cyclohexyl)-amide dihydrochloride]
EC50 (sonic hedgehog pathway [1]): 50 to 250 nM

EC50 (sonic hedgehog pathway [2]): 250 to 1000 nM
Compound: CCOc1ccc(-c2ccc(N)nc2)cc1CN(C(=O)c1sc2ccccc2c1Cl)[C@H]1CC[C@H](NC)CC1 [Compound 396, 3-Chloro-benzo[b]thiophene-2-carboxylic acid [2-ethoxy-5-(6-amino-pyridin-3-yl)-benzyl]-(4-methylamino-cyclohexyl)-amide dihydrochloride]
EC50 (sonic hedgehog pathway [1]): 50 to 250 nM

EC50 (sonic hedgehog pathway [2]): 50 to 250 nM
Compound: CCOc1ccc(-c2ccc(C#N)cc2)cc1CN(C(=O)c1sc2ccccc2c1Cl)[C@H]1CC[C@@H](NC)CC1 [Compound R2, 3-Chloro-benzo[b]thiophene-2-carboxylic acid (4′-cyano-4-ethoxy-biphenyl-3-ylmethyl)-(4-methylamino-cyclohexyl)-amide hydrochloride]
EC50 (sonic hedgehog pathway [1]): 50 to 250 nM

EC50 (sonic hedgehog pathway [2]): < 50 nM
Compound: CN[C@H]1CC[C@@H](N(Cc2cc(-c3ccncc3)ccc2OC)C(=O)c2sc3ccccc3c2Cl)CC1 [339 (R12)]
EC50 (sonic hedgehog pathway [1]): < 50 nM

EC50 (sonic hedgehog pathway [3]): < 50 nM
EC50 (sonic hedgehog pathway [2]): < 50 nM
Compound: CN[C@H]1CC[C@H](N(Cc2cc(-c3ccccc3)ccc2F)C(=O)c2sc3ccccc3c2Cl)CC1 [Compound 425, 3-Chloro-benzo[b]thiophene-2-carboxylic acid (4-fluoro-biphenyl-3-ylmethyl)-(4-methylamino-cyclohexyl)-amide trifluoroacetate]

EC50 (sonic hedgehog pathway [3]): < 50 nM
EC50 (sonic hedgehog pathway [2]): < 50 nM
Compound: CN[C@H]1CC[C@@H](N(Cc2cc(-c3ccc(C#N)cc3)ccc2OC)C(=O)c2sc3cccc(F)c3c2Cl)CC1 [Compound 366, 3-Chloro-4-fluoro-benzo[b]thiophene-2-carboxylic acid (4′-cyano-4-methoxy-biphenyl-3-ylmethyl)-(4-methylamino-cyclohexyl)-amide hydrochloride]

EC50 (sonic hedgehog pathway [3]): 250 to 1000 nM
EC50 (sonic hedgehog pathway [2]): 250 to 1000 nM
Compound: CN[C@H]1CC[C@H](N(Cc2cc(-c3ccc(C#N)cc3)ccc2F)C(=O)c2sc3ccccc3c2Cl)CC1 [Compound 423, 3-Chloro-benzo[b]thiophene-2-carboxylic acid (4′-cyano-4-fluoro-biphenyl-3-ylmethyl)-(4-methylamino-cyclohexyl)-amide trifluoroacetate]

EC50 (sonic hedgehog pathway [3]): < 50 nM
EC50 (sonic hedgehog pathway [2]): < 50 nM
Compound: CN[C@H]1CC[C@@H](N(Cc2cc(-c3cccc(C#N)c3)ccc2OC)C(=O)c2sc3cccc(F)c3c2Cl)CC1 [Compound 365, 3-Chloro-4-fluoro-benzo[b]thiophene-2-carboxylic acid (3′-cyano-4-methoxy-biphenyl-3-ylmethyl)-(4-methylamino-cyclohexyl)-amide hydrochloride]
